For 20 molecules, IC50 results are on record in ChEMBL document CHEMBL1127284, “The synthesis of 2,3-dihydro-4(1H)-quinazolinone angiotensin II receptor antagonists” (Bioorg Med Chem Lett, 1994).

The experiment concerns the target T1, Angiotensin II receptor (Rattus norvegicus, UniProt P29089+P25095+P35351).
T1 sequence (P29089 whole entry): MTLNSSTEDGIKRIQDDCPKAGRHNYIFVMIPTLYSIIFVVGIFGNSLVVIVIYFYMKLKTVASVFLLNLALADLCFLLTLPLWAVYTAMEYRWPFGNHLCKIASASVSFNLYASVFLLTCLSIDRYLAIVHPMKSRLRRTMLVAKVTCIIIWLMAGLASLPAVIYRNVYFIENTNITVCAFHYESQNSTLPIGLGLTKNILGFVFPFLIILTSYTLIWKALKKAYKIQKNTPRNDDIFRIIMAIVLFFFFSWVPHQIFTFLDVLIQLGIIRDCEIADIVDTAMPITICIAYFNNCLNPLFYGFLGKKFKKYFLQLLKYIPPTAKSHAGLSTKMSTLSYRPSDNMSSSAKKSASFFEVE
T1 sequence (P25095 whole entry): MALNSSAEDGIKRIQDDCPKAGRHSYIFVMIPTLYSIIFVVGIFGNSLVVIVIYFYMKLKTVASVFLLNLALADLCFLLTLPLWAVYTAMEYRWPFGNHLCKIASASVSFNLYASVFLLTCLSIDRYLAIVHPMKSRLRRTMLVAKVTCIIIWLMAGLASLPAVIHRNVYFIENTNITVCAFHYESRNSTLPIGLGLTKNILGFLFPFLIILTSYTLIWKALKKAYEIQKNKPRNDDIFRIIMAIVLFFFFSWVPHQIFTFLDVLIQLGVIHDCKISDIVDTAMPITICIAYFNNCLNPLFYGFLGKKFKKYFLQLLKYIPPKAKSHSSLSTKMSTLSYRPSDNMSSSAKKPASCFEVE
T1 sequence (P35351 whole entry): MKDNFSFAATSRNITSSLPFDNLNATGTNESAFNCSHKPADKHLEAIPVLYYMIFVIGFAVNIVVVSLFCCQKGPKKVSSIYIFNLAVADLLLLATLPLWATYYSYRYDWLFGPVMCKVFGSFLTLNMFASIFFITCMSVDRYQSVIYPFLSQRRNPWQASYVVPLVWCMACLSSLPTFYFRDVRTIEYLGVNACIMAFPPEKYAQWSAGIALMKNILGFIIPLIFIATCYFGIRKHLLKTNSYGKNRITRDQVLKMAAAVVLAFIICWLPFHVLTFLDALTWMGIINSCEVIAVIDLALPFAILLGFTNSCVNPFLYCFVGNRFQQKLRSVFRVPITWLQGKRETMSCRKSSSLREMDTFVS
The experiment in a line: Concentration required for 50% inhibition of binding against Angiotensin II receptor in the rat adrenal cortex tissue. The experiment is classed as tissue-based.

Take `CCCCC1Nc2ccc(C(=O)OC)cc2C(=O)N1Cc1ccc(-c2ccccc2-c2nn[nH]n2)cc1` (stereo not given): the IC50 (as a rule, the concentration at which inhibition is half-maximal) turned out to be 4.1 µM.

`CC1Nc2ccccc2C(=O)N1Cc1ccc(-c2ccccc2-c2nn[nH]n2)cc1` (stereo not given) returned an IC50 of 90 µM. On the same count and under the same terms, the result for `CCCCC1N(Cc2ccc(-c3ccccc3-c3nn[nH]n3)cc2)C(=O)c2cc(C(C)(C)OC)ccc2N1C` (stereo not given) reads 2 µM; that for `CCC1Nc2ccccc2C(=O)N1Cc1ccc(-c2ccccc2-c2nn[nH]n2)cc1` (stereo not given), 27 µM; that for `CCCCC1Nc2ccc(CC)cc2C(=O)N1Cc1ccc(-c2ccccc2-c2nn[nH]n2)cc1` (stereo not given), 0.37 µM. For the molecule `CCCCC1Nc2ccc(Cc3ccccc3)cc2C(=O)N1Cc1ccc(-c2ccccc2-c2nn[nH]n2)cc1` (stereo not given), the IC50 was 3.7 µM. On the same count and under the same terms, the value for `CCCCC1Nc2ccc(C(C)C)cc2C(=O)N1Cc1ccc(-c2ccccc2-c2nn[nH]n2)cc1` (stereo not given) was 0.09 µM; that for `CCCC1N(Cc2ccc(-c3ccccc3-c3nn[nH]n3)cc2)C(=O)c2ccccc2N1Cc1ccccc1` (stereo not given) was 100 µM. For the molecule `CCCCc1nc2ccc(C(C)(C)OC)cc2c(=O)n1Cc1ccc(-c2ccccc2-c2nn[nH]n2)cc1` [CL-329167], the IC50 (read-out: IC50) was found to be 0.006 µM. Turning to `CCCC1N(Cc2ccc(-c3ccccc3-c3nn[nH]n3)cc2)C(=O)c2ccccc2N1C` (stereo not given), the IC50 turned out to be 0.05 µM. Molecule `CCC1Nc2ccc(C)cc2C(=O)N1Cc1ccc(-c2ccccc2-c2nn[nH]n2)cc1` (stereo not given) gave an IC50 of 20 µM. On the same count and under the same terms, the result for `CCCCC1Nc2ccccc2C(=O)N1Cc1ccc(-c2ccccc2-c2nn[nH]n2)cc1` (stereo not given) reads 14 µM.

In the case of `CCCC1N(Cc2ccc(-c3ccccc3-c3nn[nH]n3)cc2)C(=O)c2ccccc2N1CC` (stereo not given), the IC50 stood at 7.5 µM. On the same count and under the same terms, the value for `CCCC1Nc2ccc(C(C)C)cc2C(=O)N1Cc1ccc(-c2ccccc2-c2nn[nH]n2)cc1` (stereo not given) was 12 µM; that for `CCCCC1N(Cc2ccc(-c3ccccc3-c3nn[nH]n3)cc2)C(=O)c2ccccc2N1C` (stereo not given) was 1.1 µM; that for `CCCCC1(CCCC)Nc2ccccc2C(=O)N1Cc1ccc(-c2ccccc2-c2nn[nH]n2)cc1` was 13 µM. With `CCCC1Nc2ccccc2C(=O)N1Cc1ccc(-c2ccccc2-c2nn[nH]n2)cc1` (stereo not given), the IC50 was 0.54 µM.

For the molecule `CCC1Nc2ccc(C(C)C)cc2C(=O)N1Cc1ccc(-c2ccccc2-c2nn[nH]n2)cc1` (stereo not given), the IC50 was 45 µM.

Take `CCCCC1N(Cc2ccc(-c3ccccc3-c3nn[nH]n3)cc2)C(=O)c2cc(C(C)C)ccc2N1C` (stereo not given): the IC50 amounted to 0.65 µM. For `CCCCC1Nc2ccc(C(C)(C)OC)cc2C(=O)N1Cc1ccc(-c2ccccc2-c2nn[nH]n2)cc1` (stereo not given), the IC50 stood at 2.7 µM.
